Laboratory results as given in ChEMBL document CHEMBL1201862, “PubChem BioAssay data set” (2004).
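Following 48 hours of exposure in 96-well plates, responses at five concentrations were used to interpolate endpoints linearly. GI50 = concentration required for 50% inhibition of growth.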 Activity calls are given as the source filed them. Cut-off read from the data, not from the text of the source: active = GI50 up to about 1.1 µM and inactive = higher.

Key:
Assay in all cases: growth of human tumour cells (NCI), 48 h
KM12 = system: KM12
MDA-MB-435 = system: MDA-MB-435
Hs-578T = system: Hs-578T
SK-OV-3 = system: SK-OV-3
HOP-92 = system: HOP-92
HT-29 = system: HT-29
T47D = system: T47D
SF-539 = system: SF-539
SK-MEL-2 = system: SK-MEL-2
UACC-62 = system: UACC-62
HOP-62 = system: HOP-62
NCI-H23 = system: NCI-H23
SF-268 = system: SF-268
LOX IMVI = system: LOX IMVI
CCRF-CEM = system: CCRF-CEM
SK-MEL-5 = system: SK-MEL-5
M14 = system: M14
RPMI-8226 = system: RPMI-8226
HCT-15 = system: HCT-15

SMILES	GI50 (KM12)	GI50 (MDA-MB-435)	GI50 (Hs-578T)	GI50 (SK-OV-3)	GI50 (HOP-92)	GI50 (HT-29)	GI50 (T47D)	GI50 (SF-539)	GI50 (SK-MEL-2)	GI50 (UACC-62)	GI50 (HOP-62)	GI50 (NCI-H23)	GI50 (SF-268)	GI50 (LOX IMVI)	GI50 (CCRF-CEM)	GI50 (SK-MEL-5)	GI50 (M14)	GI50 (RPMI-8226)	GI50 (HCT-15) [µM]
O=c1c(C(c2ccc3ccccc3c2)c2c(O)oc3ccccc3c2=O)c(O)oc2ccccc12	18.1 µM (inactive)	24.9 µM (inactive)	28.6 µM (inactive)	50.9 µM (inactive)	29.2 µM (inactive)	18.5 µM (inactive)	39.1 µM (inactive)	25.5 µM (inactive)	34.5 µM (inactive)	38.1 µM (inactive)	39.3 µM (inactive)	23.2 µM (inactive)	21.4 µM (inactive)	34.6 µM (inactive)	46.5 µM (inactive)	22.6 µM (inactive)	25.9 µM (inactive)	32.4 µM (inactive)	20
CN1C/C(=C\c2cccs2)C(=O)/C(=C/c2cccs2)C1	21 µM (inactive)	16 µM (inactive)	> 100 µM (inactive)	33.2 µM (inactive)	2.51 µM (inactive)	18.7 µM (inactive)	20.6 µM (inactive)		20.8 µM (inactive)	57.3 µM (inactive)	33 µM (inactive)	31.2 µM (inactive)	46.7 µM (inactive)	16.3 µM (inactive)	5.27 µM (inactive)	38.5 µM (inactive)	21.1 µM (inactive)	5.53 µM (inactive)	27.2
Cc1[nH]c(=O)[nH]c(=S)c1C(=O)NC(C)(CO)CO	> 100 µM (inactive)	> 100 µM (inactive)	> 100 µM (inactive)	> 100 µM (inactive)	> 100 µM (inactive)	> 100 µM (inactive)	> 100 µM (inactive)	> 100 µM (inactive)	> 100 µM (inactive)	> 100 µM (inactive)	> 100 µM (inactive)	> 100 µM (inactive)	> 100 µM (inactive)	> 100 µM (inactive)	> 100 µM (inactive)	> 100 µM (inactive)	> 100 µM (inactive)		> 100
O=S1(=O)N=C(NCc2c[nH]c3ccccc23)N(c2ccccc2)c2ccncc21	> 100 µM (inactive)	> 100 µM (inactive)	31.7 µM (inactive)	40.2 µM (inactive)	22.6 µM (inactive)	> 100 µM (inactive)	> 100 µM (inactive)	66.4 µM (inactive)	> 100 µM (inactive)	> 100 µM (inactive)	30 µM (inactive)	> 100 µM (inactive)	27.5 µM (inactive)	> 100 µM (inactive)	> 100 µM (inactive)	> 100 µM (inactive)	> 100 µM (inactive)		> 100
CCC1(CC)CC(=NNS(=O)(=O)c2ccc(C)cc2)C1	> 100 µM (inactive)	> 100 µM (inactive)	> 100 µM (inactive)	> 100 µM (inactive)	> 100 µM (inactive)	> 100 µM (inactive)	> 100 µM (inactive)	> 100 µM (inactive)	> 100 µM (inactive)	> 100 µM (inactive)		> 100 µM (inactive)	> 100 µM (inactive)	> 100 µM (inactive)	> 100 µM (inactive)	> 100 µM (inactive)	> 100 µM (inactive)		> 100
CCCCCCCCCCCCC(O)C(=O)O (stereo not drawn)	> 100 µM (inactive)	> 100 µM (inactive)	> 100 µM (inactive)	> 100 µM (inactive)	> 100 µM (inactive)	> 100 µM (inactive)	> 100 µM (inactive)	> 100 µM (inactive)	> 100 µM (inactive)	> 100 µM (inactive)	> 100 µM (inactive)	> 100 µM (inactive)		> 100 µM (inactive)	> 100 µM (inactive)	> 100 µM (inactive)	> 100 µM (inactive)	> 100 µM (inactive)	> 100
